{
  "source": "patent US10844351B2",
  "about": "“Method for producing otic progenitors” (priority 2015, dated 2020)",
  "format_in_all_cases": "cell-based, human",
  "key": {"H14S9 hES cell line [1]": {"test_system": "H14S9 hES cell line", "assay": "QPCR of ectoderm, mesoderm and endoderm lineage marker gene expression after 12 day otic differentiation", "procedure": "With the H14S9 hES cell line, 12 day otic differentiation experiments were carried out in control DFNB, FGF, or FGF with 10 μM IWR-1-endo supplemented medium. Gene expression of the three germ layer lineages relative to the baseline DFNB condition were quantified by QPCR. Two gene markers for each germ layer were investigated; PAX6 and NEST/N (ectoderm), BRACHYURY and MEOX1 (mesoderm), and AFP and GATA6 (endoderm) (FIG. 2).\nFollowing a lost-of function/gain-of function paradigm, an experiment was done to determine the effect of activating canonical Wnt signalling throughout the 12 days of otic differentiation. The small molecule compound BIO (6-bromoindirubin-3′-oxime, Tocris) is a potent inhibitor of GSK-3β kinase, a component of the β-catenin degradation complex. Inhibition of GSK-3β kinase activity disrupts the proteolytic breakdown of β-catenin and so Wnt activity is sustained (Meijer et al., 2003). BIO is well established in the literature and has been used to investigate survival and proliferation of hES cells and also lineage differentiation studies (Dravid et al., 2005) (Tseng et al., 2006). BIO was tested at a concentration of 2 μM (as recommended in the literature). […] In contrast to inhibiting canonical Wnt signalling throughout the 12 day protocol, activating canonical Wnt signalling throughout appears to downregulate gene expression of the otic and ectoderm markers, with upregulation of markers of mesoderm and endoderm."}, "H14S9 hES cell line [2]": {"test_system": "H14S9 hES cell line", "assay": "QPCR of otic marker gene expression after 12 day otic differentiation protocol", "procedure": "The effect of the Wnt inhibitors was initially explored in the backdrop of a known differentiation protocol, which includes FGF 3 and FGF 10 supplementation from the outset. Experiments were carried out to determine the effect of canonical Wnt inhibition on the differentiation of otic progenitors in FGF medium (standard concentration of 50 ng/ml for each FGF 3 and FGF 10) and obtain an optimal working concentration. IWR-1-endo was present from day 0 of differentiation (day 0 refers to the initial seeding of the hES cells into differentiation conditions) and were maintained throughout the 12 day protocol. At the end of the differentiation protocol, RNA was extracted and PAX2, PAX8 and FOXG1 gene expression was quantified by real time PCR (QPCR) using SYBR Green (Sigma Aldrich). Delta Cts were calculated against the large ribosomal protein RPLPO housekeeping gene, and Delta Ct values were compared against the levels expressed by cells differentiated in the control DFNB medium (Livak and Schmittgen, 2001). FIG. 1 compares the dose responses of IWR-1-endo and the effect on the gene expression of PAX2, PAX8 and FOXG1 in the H14S9 hES cell line. Dimethyl sulfoxide (DMSO) was the vehicle for all small molecule compounds. A vehicle-only control was added to FGF medium to ascertain the effects of DMSO. […] This provided confidence that the Wnt inhibitor compound was exerting an effect on gene expression, and not the carrier vehicle. […] The optimal concentration of IWR-1-endo agrees with published findings in human stem cell studies (Chen et al., 2009, Hudson et al., 2012).\nFurther investigating the timing of canonical Wnt inhibition it was important to address whether inhibition was required throughout the whole 12-day differentiation protocol. Experiments were set up to inhibit canonical Wnt signalling for different lengths of time. In combination with FGF medium, Wnt inhibition took place from day 0 to day 4, day 0 to day 6, or day 0 to day 8. […] At the end of day 12, gene expression of PAX2, PAX8 and FOXG1 was quantified relative to the DFNB baseline condition, and is shown in FIG. 6. […]"}, "H14S9 hES cell line [3]": {"test_system": "H14S9 hES cell line", "assay": "Cell death in differentiating cultures", "settings": "20 μM IWR-1-endo in FGF medium", "procedure": "The effect of the Wnt inhibitors was initially explored in the backdrop of a known differentiation protocol, which includes FGF 3 and FGF 10 supplementation from the outset. Experiments were carried out to determine the effect of canonical Wnt inhibition on the differentiation of otic progenitors in FGF medium (standard concentration of 50 ng/ml for each FGF 3 and FGF 10) and obtain an optimal working concentration. IWR-1-endo was present from day 0 of differentiation (day 0 refers to the initial seeding of the hES cells into differentiation conditions) and were maintained throughout the 12 day protocol. At the end of the differentiation protocol, RNA was extracted and PAX2, PAX8 and FOXG1 gene expression was quantified by real time PCR (QPCR) using SYBR Green (Sigma Aldrich). Delta Cts were calculated against the large ribosomal protein RPLPO housekeeping gene, and Delta Ct values were compared against the levels expressed by cells differentiated in the control DFNB medium (Livak and Schmittgen, 2001). FIG. 1 compares the dose responses of IWR-1-endo and the effect on the gene expression of PAX2, PAX8 and FOXG1 in the H14S9 hES cell line. Dimethyl sulfoxide (DMSO) was the vehicle for all small molecule compounds. A vehicle-only control was added to FGF medium to ascertain the effects of DMSO. […]"}, "[4]": {"settings": "2 μM BIO in FGF medium throughout 12 days, one experiment"}, "[5]": {"settings": "FGF medium with 10 μM IWR-1-endo, 12 days, compared to FGF condition"}},
  "data": [
    {"compound": "O=C1Nc2cc(Br)ccc2/C1=C1/Nc2ccccc2/C1=N\\O", "note": "[BIO, 6-bromoindirubin-3′-oxime]", "values": [
      {"measurement": "gene expression of markers of mesoderm and endoderm", "setting": "H14S9 hES cell line [1]; [4]", "result": "upregulation"},
      {"measurement": "gene expression of the otic and ectoderm markers", "setting": "H14S9 hES cell line [1]; [4]", "result": "downregulate"}
    ]},
    {"compound": "O=C(Nc1cccc2cccnc12)c1ccc(N2C(=O)[C@@H]3[C@H](C2=O)[C@@H]2C=C[C@H]3C2)cc1", "note": "[IWR-1-endo]", "values": [
      {"measurement": "ectodermal differentiation (PAX6, NESTIN gene expression)", "setting": "H14S9 hES cell line [1]; [5]", "result": "enhanced further over the FGF condition"},
      {"measurement": "gene expression of mesoderm and endoderm markers", "setting": "H14S9 hES cell line [1]; [5]", "result": "significantly reduced compared to the FGF condition"},
      {"measurement": "AFP gene expression", "setting": "H14S9 hES cell line [1]; FGF medium with IWR-1-endo, 12 days, compared to FGF condition", "result": "significant downregulation"},
      {"measurement": "gene expression of PAX2, PAX8 and FOXG1", "setting": "H14S9 hES cell line [2]; 10 μM IWR-1-endo in FGF medium (50 ng/ml FGF 3 and FGF 10), day 0 to day 12, relative to DFNB", "result": "more robust and reproducible upregulation"},
      {"measurement": "gene expression of PAX2, PAX8 or FOXG1", "setting": "H14S9 hES cell line [2]; IWR-1-endo day 0 to day 4 or day 0 to day 6, then FGF medium only until day 12, compared to FGF medium alone", "result": "did not significantly alter"},
      {"measurement": "gene expression of the otic markers", "setting": "H14S9 hES cell line [2]; canonical Wnt inhibition with IWR-1-endo day 0 to 8 or day 0 to 12, compared to standard FGF medium", "result": "Significant upregulation"},
      {"measurement": "cell death in the cultures", "setting": "H14S9 hES cell line [3]", "result": "very high levels of cell death"}
    ]}
  ]
}
